Reference: patent US20240025910A1, “BRAIN-MIGRATING TUMOR THERAPEUTIC AGENT CONTAINING FUSED PYRIMIDINE COMPOUND AS ACTIVE INGREDIENT” (TAIHO PHARMACEUTICAL CO., LTD., priority 2020, published 2024)

What was measured:
[1] = Evaluation of brain penetration property (Kp, Kp,uu) after single oral dose; type: in vivo; conditions: BALB/cAJcl-nu/nu; for Kp at 1 h: mouse, ratio of compound concentrations in brain/plasma, mice, 1 hour after administration, Kp of 0.1 or more judged brain penetrable; for Kp uu at 1 h: ratio of unbound compound concentrations in brain/plasma, using mouse plasma and brain protein unbound ratios of Test Example 1, mice, 0.3 or more judged excellent
Experimental: Compounds shown in Tables 1 to 4 were added to mouse plasma at a final concentration of 1 μmol/L. The resultant compound-added mouse plasma was added to the donor side of an equilibrium dialysis device (HTDialysis) in which an equilibrium dialysis membrane was set. An equal amount of PBS was added to the receiver side of the device, and after incubation in a 10% CO2 incubator for 6 hours, the compounds on the donor side and the receiver side were detected with the LC-MS/MS. The unbound ratio of each compound to plasma protein was calculated from the ratio of the compound peak area of the receiver side to that of the donor side.
The unbound ratio of each compound to brain protein was calculated in the same manner as above except that: the compound was added to a mouse brain homogenate instead of the mouse plasma; and a dilution ratio was taken into consideration in the calculation of the unbound ratio. In this case, the mouse brain homogenate was obtained by adding a 3-fold amount of PBS to the mouse brain, and then homogenizing the mixture through use of an ultrasonic homogenizer.
The compounds shown in Tables 1 to 4 were dissolved or suspended in 0.5% HPMC, 0.1N hydrochloric acid, and orally administered in a single dose to BALB/cAJcl-nu/nu mice (CLEA Japan, Inc.) untreated, or subcutaneously implanted with TT cells, or subcutaneously implanted with the BaF3/KIF5B-RET_RFP cell line. […] Thus, blood and brain samples were obtained. The obtained blood sample was centrifuged to obtain a plasma sample. A 3-fold amount of water was added to the obtained brain sample, and then the mixture was homogenized through use of an ultrasonic homogenizer to obtain a brain homogenate.
Compound concentrations in the obtained plasma and in the brain homogenate were measured with the LC-MS/MS, and the compound concentration in the brain homogenate was multiplied by a factor of 4 to calculate a compound concentration in the brain. A Kp value was calculated from the ratio of the compound concentrations in the brain/plasma. Unbound compound concentrations in the plasma and in the brain were calculated from the plasma protein unbound ratio and brain protein unbound ratio of each compound determined in Test Example 1, and a Kp,uu value was calculated from the ratio of the unbound compound concentrations in the brain/plasma. A brain penetration property was evaluated on the basis of the calculated Kp value and Kp,uu value (Tables 1 to 4). Specifically, a compound showing a Kp value of 0.1 or more was judged to have a brain penetration property, and a compound showing a Kp,uu value of 0.3 or more was judged to have an excellent brain penetration property (Varadharajan, S., et al. (2015) J Pharm Sci 104, 1197-1206). In Table 4, “N/A” in the column “Kp,uu value” means that the value was unmeasured.

[2] = tested on: NIH/3T3_CCDC6-RET cells implanted in the brain; assay: Evaluation of drug efficacy in brain tumor implantation model; type: in vivo, nude mice (BALB/cAJcl-nu/nu); conditions: oral 50 mg/kg/day, twice a day for 16 consecutive days from Day 5; NIH/3T3_CCDC6-RET brain implant, nude mice
Experimental: Antitumor evaluation was performed in models with tumors implanted in the brain.
The growth inhibitory effect was confirmed by using NIH/3T3 cells (NIH/3T3_CCDC6-RET cells) in which luciferase and CCDC6-RET fusion protein were forced to be expressed for gene transfer. Six-week-old male nude mice (BALB/cAJcl-nu/nu, CLEA Japan, Inc.) were fixed on a brain stereotaxic instrument, and 2.5×10^4 cells per mice were implanted at a site 0.5 mm anteriorly from the bregma, 2 to 2.2 mm to the right and 3.5 mm deep. The day of implantation was defined as Day 0, luciferin (150 mg/kg) was administered intraperitoneally on Day 4, and intensity of luminescence (photons/sec) was measured using an IVIS Imaging System (Lumina II, PerkinElmer).
From the next day (Day 5), compounds were administered twice a day for 16 consecutive days. Each compound was suspended in 0.5% HPMC/0.1N hydrochloric acid and administered orally at 50 mg/kg/day. To confirm tumor growth, intensity of luminescence was measured at intervals of 3 or 4 days by the method described above.
However, since a humane endpoint due to tumor growth was applied to the drug non-administration group (control group), statistical evaluation was performed by Dunnett's test using the measurement value on Day 14.

SMILES	Kp at 1 h [1]	Kp uu at 1 h [1]	inhibitory effect on growth of tumors implanted in the brain (intensity of luminescence) [2]
COCc1ccc(NC(=O)c2c(C#Cc3cn(C)nc3C)n(C3(C)CC3)c3ncnc(N)c23)cc1 [Example 1, 4-amino-6-[2-(1,3-dimethyl-1H-pyrazol-4-yl)ethynyl]-N-[4-(methoxymethyl)phenyl]-7-(1-methylcyclopropyl)-7H-pyrrolo[2,3-d]pyrimidine-5-carboxamide]	0.425	0.425	–
COCc1ccc(NC(=O)c2c(C#CCN3CCOCC3)n(C3(C)CC3)c3ncnc(N)c23)cc1 [Example 2, 4-amino-N-[4-(methoxymethyl)phenyl]-7-(1-methylcyclopropyl)-6-(3-morpholinoprop-1-yn-1-yl)-7H-pyrrolo[2,3-d]pyrimidine-5-carboxamide]	1.71	1.8	inhibitory effect on the growth of the implanted tumors
COCc1ccc(NC(=O)c2c(C#CC3CCN(C)CC3)n(C3(C)CC3)c3ncnc(N)c23)cc1 [Example 3, 4-amino-N-[4-(methoxymethyl)phenyl]-7-(1-methylcyclopropyl)-6-[(1-methylpiperidin-4-yl)ethynyl]-7H-pyrrolo[2,3-d]pyrimidine-5-carboxamide]	0.772	0.22	–
COCc1ccc(NC(=O)c2c(C#Cc3cnn(C)c3)n(C3(C)CC3)c3ncnc(N)c23)cc1 [Example 4, 4-amino-N-[4-(methoxymethyl)phenyl]-6-((1-methyl-1H-pyrazol-4-yl)ethynyl)-7-(1-methylcyclopropyl)-7H-pyrrolo[2,3-d]pyrimidine-5-carboxamide]	1.44	1.2	–
CC#Cc1c(C(=O)Nc2ccc(COC)cc2)c2c(N)ncnc2n1C1(C)CC1 [Example 5, 4-amino-N-[4-(methoxymethyl)phenyl]-7-(1-methylcyclopropyl)-6-(prop-1-yn-1-yl)-7H-pyrrolo[2,3-d]pyrimidine-5-carboxamide]	1.56	0.681	–
COCc1ccc(NC(=O)c2c(C#CCN(C)C)n(C3(C)CC3)c3ncnc(N)c23)cc1 [Example 6, 4-amino-6-[3-(dimethylamino)prop-1-yn-1-yl]-N-[4-(methoxymethyl)phenyl]-7-(1-methylcyclopropyl)-7H-pyrrolo[2,3-d]pyrimidine-5-carboxamide]	0.969	0.922	–
COCc1ccc(NC(=O)c2c(OC[C@H]3CCCO3)n(C3(C)CC3)c3ncnc(N)c23)cc1 [Example 7, (R)-4-amino-N-[4-(methoxymethyl)phenyl]-7-(1-methylcyclopropyl)-6-((tetrahydrofuran-2-yl)methoxy)-7H-pyrrolo[2,3-d]pyrimidine-5-carboxamide]	1.63	0.608	–
COCc1ccc(NC(=O)c2cn(C3(C)CC3)c3ncnc(N)c23)cc1 [Example 8, 4-amino-N-[4-(methoxymethyl)phenyl]-7-(1-methylcyclopropyl)-7H-pyrrolo[2,3-d]pyrimidine-5-carboxamide]	0.175	0.1	–
CCOc1c(C(=O)Nc2ccc(COC)cc2)c2c(N)ncnc2n1C1(C)CC1 [Example 9, 4-amino-6-ethoxy-N-[4-(methoxymethyl)phenyl]-7-(1-methylcyclopropyl)-7H-pyrrolo[2,3-d]pyrimidine-5-carboxamide]	2.12	0.914	–
COCc1ccc(NC(=O)c2c(C#Cc3cncn3C)n(C3(C)CC3)c3ncnc(N)c23)cc1 [Example 10, 4-amino-N-(4-(methoxymethyl)phenyl)-6-((1-methyl-1H-imidazol-5-yl)ethynyl)-7-(1-methylcyclopropyl)-7H-pyrrolo[2,3-d]pyrimidine-5-carboxamide]	0.143	0.056	–
COCc1ccc(NC(=O)c2c(C#CCN3CCCCC3)n(C3(C)CC3)c3ncnc(N)c23)cc1 [Example 11, 4-amino-N-[4-(methoxymethyl)phenyl]-7-(1-methylcyclopropyl)-6-(3-(piperidin-1-yl)prop-1-yn-1-yl)-7H-pyrrolo[2,3-d]pyrimidine-5-carboxamide]	1.36	–	–
COCc1ccc(NC(=O)c2c(C#CCN3CCCC3)n(C3(C)CC3)c3ncnc(N)c23)cc1 [Example 12, 4-amino-N-[4-(methoxymethyl)phenyl]-7-(1-methylcyclopropyl)-6-(3-(pyrrolidin-1-yl)prop-1-yn-1-yl)-7H-pyrrolo[2,3-d]pyrimidine-5-carboxamide]	1.02	1.45	–
COCc1ccc(NC(=O)c2c(C#CC3CCOCC3)n(C3(C)CC3)c3ncnc(N)c23)cc1 [Example 13, 4-amino-N-[4-(methoxymethyl)phenyl]-7-(1-methylcyclopropyl)-6-((tetrahydro-2H-pyran-4-yl)ethynyl)-7H-pyrrolo[2,3-d]pyrimidine-5-carboxamide]	2.08	0.891	–
COCc1ccc(NC(=O)c2c(C#CCC(C)(C)O)n(C3(C)CC3)c3ncnc(N)c23)cc1 [Example 14, 4-amino-6-(4-hydroxy-4-methylpent-1-yn-1-yl)-N-[4-(methoxymethyl)phenyl]-7-(1-methylcyclopropyl)-7H-pyrrolo[2,3-d]pyrimidine-5-carboxamide]	0.352	0.242	–
COCc1ccc(NC(=O)c2c(C#CCC3CCOCC3)n(C3(C)CC3)c3ncnc(N)c23)cc1 [Example 15, 4-amino-N-[4-(methoxymethyl)phenyl]-7-(1-methylcyclopropyl)-6-[3-(tetrahydro-2H-pyran-4-yl)prop-1-yn-1-yl]-7H-pyrrolo[2,3-d]pyrimidine-5-carboxamide]	0.74	0.37	–
COCc1ccc(NC(=O)c2c(C#Cc3cccnc3)n(C3(C)CC3)c3ncnc(N)c23)cc1 [Example 16, 4-amino-N-[4-(methoxymethyl)phenyl]-7-(1-methylcyclopropyl)-6-(pyridin-3-ylethynyl)-7H-pyrrolo[2,3-d]pyrimidine-5-carboxamide]	1.09	0.653	–
COCc1ccc(NC(=O)c2c(C#Cc3ccc(N)nc3)n(C3(C)CC3)c3ncnc(N)c23)cc1 [Example 17, 4-amino-6-[(6-aminopyridin-3-yl)ethynyl]-N-[4-(methoxymethyl)phenyl]-7-(1-methylcyclopropyl)-7H-pyrrolo[2,3-d]pyrimidine-5-carboxamide]	0.129	0.052	–
COCc1ccc(NC(=O)c2c(C#CCN3CCSCC3)n(C3(C)CC3)c3ncnc(N)c23)cc1 [Example 18, 4-amino-N-[4-(methoxymethyl)phenyl]-7-(1-methylcyclopropyl)-6-(3-thiomorpholinoprop-1-yn-1-yl)-7H-pyrrolo[2,3-d]pyrimidine-5-carboxamide]	0.685	0.443	–
Cc1cc(NC(=O)c2cn(C(C)(C)C)c3ncnc(N)c23)n[nH]1 [compound 1, reference compound]	0.056	–	–
Cc1cc(NC(=O)c2cn(C3(C)CC3)c3ncnc(N)c23)n[nH]1 [compound 2, reference compound]	0.022	0.005	–
Cc1cc(NC(=O)c2c(C#Cc3cnn(C)c3)n(C3(C)CC3)c3ncnc(N)c23)[nH]n1 [compound 3, reference compound]	0.076	–	–
